Measurements from PMC5408233, “Marine Cyclic Guanidine Alkaloids Monanchomycalin B and Urupocidin A Act as Inhibitors of TRPV1, TRPV2 and TRPV3, but not TRPA1 Receptors” (Marine Drugs, 2017).
Like-named read-outs stand apart in the source and are kept apart here.

How the values were obtained:
rat TRPA1 (rTRPA1) [1] = target: T1, rat TRPA1 (rTRPA1) (Rattus norvegicus, UniProt Q6RI86); assay: Fluo-4 intracellular calcium assay, inhibition of AITC-induced [Ca2+] response in CHO cells expressing rTRPA1; format: cell-based; details: for EC50 (µM) rTRPA1: inhibitory activity, CHO cells expressing rTRPA1, agonist 100 μM AITC, preincubation 30 min at 37 °C
T1 construct: expressed in transfected cells
Description: (§1) The guanidine alkaloids (1–4) were tested on inhibitory activities against rTRPV1 (Figure 2A), mTRPV2 (Figure 2B), hTRPV3 (Figure 2C) and rTRPA1 receptors expressed in CHO (Chinese hamster ovary) cells in a Fluo-4–based intracellular calcium assay.
(§2) The effect of 1–4 on all the TRP-expressing cells was measured after preincubation at 37 °C for 30 min for standardization. […] Capsazepine (CZP) or non-specific blocker ruthenium red (RR) were used as a positive control for TRPV1 and for the other studied TRP receptors correspondingly.
(§3) The mouse TRPV2 gene was cloned form pancreatic beta cell line MIN6 and the CHO cell line stably expressing mouse TRPV2 was generated using T-Rex System (Thermo Fisher Scientific Inc., Waltham, MA, USA) similarly previously obtained stable cell lines for rat TRPV1, human TRPV3 and rat TRPA1 [6, 8]. Fluorescent assays were performed as described in [6]. The alkaloid’s solutions of desired concentration were obtained by serial dilution of water stock solutions (10 mg/mL) in calcium assay buffer (10 mM HEPES/HBSS, pH 7.4). The buffer alone (negative control) or serial dilutions of alkaloids 1–4 (20 μl) were added to the cells loaded with the cytoplasmic calcium indicator Fluo-4AM using Fluo-4 Direct™ Calcium Assay Kit (Thermo Fisher Scientific Inc., Waltham, MA, USA) (80 μl) and the cells were incubated 30 min at 37 °C. Changes in cell fluorescence (λex = 485 nm, λem = 520 nm) were monitored using NOVO star (BMG LABTECH, Ortenberg, Germany) before and after the addition of relevant agonist (500 nM capsaicin for rTRPV1, 300 μM 2APB for mTRPV2, 200 μM 2APB for hTRPV3, 100 μM AITC for rTRPA1) at 25 °C. Average cell responses to agonists in controls were about 60, 45, 40, 85% of the responses produced by 5 μM ionomycin for rTRPV1, mTRPV2, hTRPV3, rTRPA1 correspondingly. To avoid the spread of the data due to prolonged instrumental measurement each experimental point has control in the nearest plate wells. Curve fitting and parameter estimations were performed with Microsoft Excel 2007 (Microsoft Corporation, Redmond, WA, USA) and Origin 7.0 (OriginLab Corporation, Northampton, MA, USA). The EC50 values were determined as the concentration of test substance required to produce half-maximal decreases in [Ca^2+].

rat TRPV1 (rTRPV1) [2] = target: T2, rat TRPV1 (rTRPV1) (Rattus norvegicus, UniProt O35433); assay: Fluo-4 intracellular calcium assay, inhibition of capsaicin-induced [Ca2+] response in CHO cells expressing rTRPV1; format: cell-based
T2 construct: expressed in transfected cells
Description: as §1
(§4) Figure 2 Dose-response curves for monanchomycalin B (1), urupocidin A (2), semi-synthetic urupocidin A derivatives (3, 4) inhibitory activity on agonist-induced [Ca^2+] responses in CHO cells expressing rTRPV1 (A); mTRPV2 (B); hTRPV3 (C). Responses were measured as the pseudo-ratio (ΔFI/FI) determined using the following formula ΔFI/FI = (FI-FIbase)/FIbase, where FI is the measured peak fluorescence intensity, Fbase is the fluorescence intensity in non-stimulated cells. Inhibitory activity was expressed as the percentage of the response in the control experiment (untreated by alkaloids cells). Data are expressed as mean ± s.e. (n = 4–8).
as §2, §3

human TRPV3 (hTRPV3) [3] = target: T3, human TRPV3 (hTRPV3) (Homo sapiens, UniProt Q8NET8); assay: Fluo-4 intracellular calcium assay, inhibition of 2APB-induced [Ca2+] response in CHO cells expressing hTRPV3; format: cell-based
T3 construct: expressed in transfected cells
T3 sequence (Q8NET8 1-790): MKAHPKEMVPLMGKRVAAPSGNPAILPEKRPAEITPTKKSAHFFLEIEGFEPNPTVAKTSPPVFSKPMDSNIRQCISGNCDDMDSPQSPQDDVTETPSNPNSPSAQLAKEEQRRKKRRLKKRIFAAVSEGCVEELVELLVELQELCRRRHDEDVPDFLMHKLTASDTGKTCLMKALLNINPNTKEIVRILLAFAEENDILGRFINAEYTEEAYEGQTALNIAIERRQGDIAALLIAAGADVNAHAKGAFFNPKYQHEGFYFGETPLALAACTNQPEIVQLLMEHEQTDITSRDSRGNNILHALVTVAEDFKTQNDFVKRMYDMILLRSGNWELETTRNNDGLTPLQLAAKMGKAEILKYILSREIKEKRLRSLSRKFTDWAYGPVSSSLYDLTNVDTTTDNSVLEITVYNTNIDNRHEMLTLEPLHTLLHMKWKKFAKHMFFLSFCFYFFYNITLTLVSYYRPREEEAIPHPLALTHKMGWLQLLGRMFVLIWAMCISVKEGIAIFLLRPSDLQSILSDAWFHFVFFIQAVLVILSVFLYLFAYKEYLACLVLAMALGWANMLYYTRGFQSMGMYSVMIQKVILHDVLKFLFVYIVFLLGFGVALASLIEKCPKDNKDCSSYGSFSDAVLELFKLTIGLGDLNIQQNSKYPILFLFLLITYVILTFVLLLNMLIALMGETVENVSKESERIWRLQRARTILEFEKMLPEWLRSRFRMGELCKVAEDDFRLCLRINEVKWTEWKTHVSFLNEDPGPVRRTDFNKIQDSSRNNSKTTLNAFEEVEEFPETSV
Description: as §1, §4, §2, §3

rat TRPV1 (rTRPV1) [4] = target: T2, rat TRPV1 (rTRPV1); set-up: method as in doi:10.1007/s10600-015-1243-6, doi:10.1016/j.tetlet.2012.12.099; details: determined in the same test system; read-out: EC50, inhibitory activity against rTRPV1; cited from earlier work
human TRPV3 (hTRPV3) [5] = target: T3, human TRPV3 (hTRPV3); set-up: method as in doi:10.1007/s10600-015-1243-6, doi:10.1016/j.tetlet.2012.12.099; details: determined in the same test system; read-out: EC50, inhibitory activity toward hTRPV3; cited from earlier work
rat TRPA1 (rTRPA1) [6] = target: T1, rat TRPA1 (rTRPA1); set-up: method as in doi:10.1007/s10600-015-1243-6; details: read-out: EC50, inhibition of rTRPA1; cited from earlier work
mouse TRPV2 (mTRPV2) = target: T4, mouse TRPV2 (mTRPV2) (Mus musculus, UniProt Q9WTR1); assay: Fluo-4 intracellular calcium assay, inhibition of 2APB-induced [Ca2+] response in CHO cells expressing mTRPV2; format: cell-based
T4 construct: expressed in transfected cells
T4 sequence (Q9WTR1 1-756): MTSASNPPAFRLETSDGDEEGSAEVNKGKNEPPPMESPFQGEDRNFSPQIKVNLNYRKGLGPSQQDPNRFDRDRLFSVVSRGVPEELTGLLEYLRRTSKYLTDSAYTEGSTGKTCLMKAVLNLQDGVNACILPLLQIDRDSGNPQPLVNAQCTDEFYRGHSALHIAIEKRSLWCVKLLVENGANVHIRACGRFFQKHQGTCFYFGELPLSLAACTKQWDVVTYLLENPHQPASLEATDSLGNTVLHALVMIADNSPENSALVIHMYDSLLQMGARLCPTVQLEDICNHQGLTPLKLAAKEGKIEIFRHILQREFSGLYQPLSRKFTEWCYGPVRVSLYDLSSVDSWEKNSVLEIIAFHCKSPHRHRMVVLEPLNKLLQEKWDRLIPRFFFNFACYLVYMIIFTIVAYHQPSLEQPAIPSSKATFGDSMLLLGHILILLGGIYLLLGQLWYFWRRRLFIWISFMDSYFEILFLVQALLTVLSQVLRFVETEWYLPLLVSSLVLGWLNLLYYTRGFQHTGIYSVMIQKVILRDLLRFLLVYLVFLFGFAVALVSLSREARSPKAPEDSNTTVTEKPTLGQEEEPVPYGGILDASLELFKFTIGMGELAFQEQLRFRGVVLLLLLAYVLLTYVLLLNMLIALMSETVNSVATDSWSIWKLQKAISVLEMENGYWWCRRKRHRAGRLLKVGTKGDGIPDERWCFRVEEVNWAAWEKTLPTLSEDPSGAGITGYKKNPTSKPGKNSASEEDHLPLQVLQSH
Description: as §1, §4, §2
The mouse TRPV2 gene was cloned form pancreatic beta cell line MIN6 and the CHO cell line stably expressing mouse TRPV2 was generated using T-Rex System (Thermo Fisher Scientific Inc., Waltham, MA, USA) similarly previously obtained stable cell lines for rat TRPV1, human TRPV3 and rat TRPA1 [6, 8]. Fluorescent assays were performed as described in [6]. […] Changes in cell fluorescence (λex = 485 nm, λem = 520 nm) were monitored using NOVO star (BMG LABTECH, Ortenberg, Germany) before and after the addition of relevant agonist (500 nM capsaicin for rTRPV1, 300 μM 2APB for mTRPV2, 200 μM 2APB for hTRPV3, 100 μM AITC for rTRPA1) at 25 °C. […] The EC50 values were determined as the concentration of test substance required to produce half-maximal decreases in [Ca^2+].

[7] = tested on: HL-60 human leukemia cells; set-up: method as in doi:10.1016/j.tetlet.2012.05.162; details: cited from earlier work
[8] = inhibitory activity, CHO cells expressing rTRPV1, agonist 500 nM capsaicin, preincubation 30 min at 37 °C, mean ± s.e., read-out: EC50 (µM) rTRPV1
[9] = inhibitory activity, CHO cells expressing hTRPV3, agonist 200 μM 2APB, preincubation 30 min at 37 °C, mean ± s.e., read-out: EC50 (µM) hTRPV3
[10] = 20 µM RR, positive control, data not shown

T1 sequence (Q6RI86 whole entry): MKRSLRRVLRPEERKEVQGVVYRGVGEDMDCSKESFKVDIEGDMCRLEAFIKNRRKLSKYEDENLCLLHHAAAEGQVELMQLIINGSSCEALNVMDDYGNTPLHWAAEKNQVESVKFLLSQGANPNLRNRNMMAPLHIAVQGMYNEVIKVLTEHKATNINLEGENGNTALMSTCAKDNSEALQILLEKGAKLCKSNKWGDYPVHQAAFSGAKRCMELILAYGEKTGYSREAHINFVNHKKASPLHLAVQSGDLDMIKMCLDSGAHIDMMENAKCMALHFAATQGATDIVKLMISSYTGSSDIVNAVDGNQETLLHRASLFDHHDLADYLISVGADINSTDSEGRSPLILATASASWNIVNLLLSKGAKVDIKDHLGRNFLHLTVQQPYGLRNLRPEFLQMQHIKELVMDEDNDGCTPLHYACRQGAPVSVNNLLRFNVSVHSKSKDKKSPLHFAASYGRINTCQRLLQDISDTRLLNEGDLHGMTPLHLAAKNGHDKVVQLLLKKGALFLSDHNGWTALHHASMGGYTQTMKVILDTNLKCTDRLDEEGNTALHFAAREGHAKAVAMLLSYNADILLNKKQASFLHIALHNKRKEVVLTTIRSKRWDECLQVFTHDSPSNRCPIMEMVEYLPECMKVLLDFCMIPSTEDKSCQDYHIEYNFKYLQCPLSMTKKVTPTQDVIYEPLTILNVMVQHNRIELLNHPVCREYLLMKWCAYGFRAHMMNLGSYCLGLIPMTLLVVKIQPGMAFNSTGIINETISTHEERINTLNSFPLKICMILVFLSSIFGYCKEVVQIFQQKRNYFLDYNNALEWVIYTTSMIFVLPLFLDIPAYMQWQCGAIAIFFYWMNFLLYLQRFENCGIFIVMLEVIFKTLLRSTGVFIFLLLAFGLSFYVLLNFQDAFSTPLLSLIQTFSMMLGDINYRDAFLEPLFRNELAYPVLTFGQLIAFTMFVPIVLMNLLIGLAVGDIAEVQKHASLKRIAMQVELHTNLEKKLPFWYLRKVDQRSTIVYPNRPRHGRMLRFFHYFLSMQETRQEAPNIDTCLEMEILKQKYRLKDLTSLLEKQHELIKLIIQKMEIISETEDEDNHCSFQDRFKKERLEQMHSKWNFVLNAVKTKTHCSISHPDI
T2 sequence (O35433 whole entry): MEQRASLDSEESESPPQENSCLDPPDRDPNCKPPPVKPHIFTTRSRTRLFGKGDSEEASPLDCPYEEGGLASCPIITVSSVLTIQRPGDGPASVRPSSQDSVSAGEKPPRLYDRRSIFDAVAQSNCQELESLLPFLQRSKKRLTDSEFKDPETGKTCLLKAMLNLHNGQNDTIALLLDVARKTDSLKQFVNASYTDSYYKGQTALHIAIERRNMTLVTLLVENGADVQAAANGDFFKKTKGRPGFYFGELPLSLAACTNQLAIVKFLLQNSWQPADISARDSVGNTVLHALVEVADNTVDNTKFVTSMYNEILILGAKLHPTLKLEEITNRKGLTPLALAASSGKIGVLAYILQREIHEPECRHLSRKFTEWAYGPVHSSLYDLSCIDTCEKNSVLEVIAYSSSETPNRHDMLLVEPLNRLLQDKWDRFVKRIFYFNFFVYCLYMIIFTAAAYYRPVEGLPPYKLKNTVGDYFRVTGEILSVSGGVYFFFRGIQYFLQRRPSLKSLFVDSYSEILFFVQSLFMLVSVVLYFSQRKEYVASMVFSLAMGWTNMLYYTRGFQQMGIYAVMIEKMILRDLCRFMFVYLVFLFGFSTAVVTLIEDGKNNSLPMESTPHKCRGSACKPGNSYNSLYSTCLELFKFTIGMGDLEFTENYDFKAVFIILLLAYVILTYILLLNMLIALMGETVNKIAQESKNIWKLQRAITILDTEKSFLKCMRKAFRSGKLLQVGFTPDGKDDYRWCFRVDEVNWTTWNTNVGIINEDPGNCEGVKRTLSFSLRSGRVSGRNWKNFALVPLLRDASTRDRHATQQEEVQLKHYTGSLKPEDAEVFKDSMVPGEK

CCCCCCC[C@@H](O)C[C@H]1CCC2=C(C(=O)OCCCCN(O)C(=N)N)[C@H](CCCCCCC)NC(=N)N21 [Compound 3, Tetrahydrourupocidin A]
EC50 (µM) rTRPA1 (rat TRPA1 (rTRPA1) [1]): not active | EC50 (rat TRPV1 (rTRPV1) [2]; [8]): 52.8 ± 5.31 µM | EC50 (human TRPV3 (hTRPV3) [3]; [9]): 29.2 ± 3.18 µM

CCC/C=C\CC[C@@H](O)C[C@H]1CCC2=C(C(=O)OC)[C@H](CC/C=C\CCC)NC(=N)N21 [Compound 4]
EC50 (µM) rTRPA1 (rat TRPA1 (rTRPA1) [1]): not active | EC50 (µM) rTRPV1 (rat TRPV1 (rTRPV1) [2]; inhibitory activity, CHO cells expressing rTRPV1, agonist 500 nM capsaicin, preincubation 30 min at 37 °C, mean ± s.e.): almost not active | EC50 (rat TRPV1 (rTRPV1) [2]; [8]): 435 ± 49.9 µM | EC50 (µM) hTRPV3 (human TRPV3 (hTRPV3) [3]; inhibitory activity, CHO cells expressing hTRPV3, agonist 200 μM 2APB, preincubation 30 min at 37 °C, mean ± s.e.): almost not active | EC50 (human TRPV3 (hTRPV3) [3]; [9]): 193 ± 25.5 µM

pulchranin A
EC50 (rat TRPV1 (rTRPV1) [4]): 27.5 µM | EC50 (human TRPV3 (hTRPV3) [5]): 71.8 µM | EC50 (rat TRPA1 (rTRPA1) [6]): 174 µM

Oc1cc2c(cc1O)CN(C(=S)NCCc1ccc(Cl)cc1)CCC2 [CZP, Capsazepine, reference compound]
Inhibition of the [Ca2+] response induced by specific agonist (TRPV1) (rat TRPV1 (rTRPV1) [2]; 10 µM CZP, positive control, data not shown): full inhibition

N.N.N.N.N.N.N.N.N.N.N.N.N.N.[Cl-].[Cl-].[Cl-].[Cl-].[Cl-].[Cl-].[O-2].[O-2].[Ru+3].[Ru+3].[Ru+4] [RR, ruthenium red, reference compound]
Inhibition of the [Ca2+] response induced by specific agonist (TRPA1) (rat TRPA1 (rTRPA1) [1]; [10]): full inhibition | Inhibition of the [Ca2+] response induced by specific agonist (TRPV3) (human TRPV3 (hTRPV3) [3]; [10]): full inhibition | Inhibition of the [Ca2+] response induced by specific agonist (TRPV2) (mouse TRPV2 (mTRPV2); [10]): full inhibition

C1=C/[C@H]2[C@@H]3CCCC[C@H]3C[C@@H]2NCCCN[C@@H]2C[C@@H]3CCCC[C@H]3[C@@H]2/C=C/1 [haliclonadiamine]
EC50 (rat TRPV1 (rTRPV1) [4]): 19.9 µM | EC50 (human TRPV3 (hTRPV3) [5]): 77 µM | EC50 (rat TRPA1 (rTRPA1) [6]): 86.7 µM

CCC=CC1CCC2(CC3CCC4C(C(=O)OCCCCCCCCCCCCCCCC(=O)N(CCCN)CCCCN)C5(CCCC(C)O5)NC(=[N+]34)N2)O1 (stereo not drawn) [Compound 1, monanchomycalin B]
EC50 (µM) rTRPA1 (rat TRPA1 (rTRPA1) [1]): not active | Cytotoxic activities against HL-60 human leukemia cells [7]: potent cytotoxic activities | EC50 (rat TRPV1 (rTRPV1) [2]): 6.02 ± 0.36 µM | EC50 (human TRPV3 (hTRPV3) [3]): 3.25 ± 0.6 µM | EC50 (mouse TRPV2 (mTRPV2)): 2.84 ± 1.01 µM

CCC/C=C\CC[C@@H](O)C[C@H]1CCC2=C(C(=O)OCCCCN(O)C(=N)N)[C@H](CC/C=C\CCC)NC(=N)N21 [Compound 2, urupocidin A]
EC50 (µM) rTRPA1 (rat TRPA1 (rTRPA1) [1]): not active | EC50 (rat TRPV1 (rTRPV1) [2]; [8]): 21.5 ± 2.51 µM | EC50 (human TRPV3 (hTRPV3) [3]; [9]): 23.6 ± 2.03 µM | EC50 (mouse TRPV2 (mTRPV2); inhibitory activity, CHO cells expressing mTRPV2, agonist 300 μM 2APB, preincubation 30 min at 37 °C, mean ± s.e., read-out: EC50 (µM) mTRPV2): 28.1 ± 6.65 µM
